Biological target: BRD4 D2 (Homo sapiens, UniProt O60885)

In the case of `Cc1sc2c(c1C)C(c1ccc(Cl)cc1)=N[C@@H](CC(=O)OC(C)(C)C)c1nnc(C)n1-2` [(+)-JQ1], the “binding to BRD4 D2 by ITC” value is reported as “potent binding”.

From PMC9683399 (Journal of medicinal chemistry, 2022)
